Source: US12358892B2, “Metalloenzyme inhibitors for treating cancers, Alzheimer's disease, hemochromatosis, and other disorders” (Miralogx LLC, priority 2020, dated 2025)

How the values were obtained:
[1] = tested on: 12 human primary cell-based systems; test: BioMAP Diversity PLUS panel, protein biomarker readouts and cytotoxicity
Description: This example describes testing the compound prepared in Example 1 in the BioMAP Diversity PLUS (Eurofins Discovery, Burlingame, California) panel of 12 human primary cell-based systems designed to model different aspects of the human body in an in vitro format. The 12 systems in the Diversity PLUS panel allow test agent characterization in an unbiased way across a broad set of systems modeling various human disease states. BioMAP systems are constructed with one or more primary cell types from healthy human donors, with stimuli (such as cytokines or growth factors) added to capture relevant signaling networks that naturally occur in human tissue or pathological conditions. Vascular biology is modeled in both a Th1 (3C system) and a Th2 (4H system) inflammatory environment, as well as in a Th1 inflammatory state specific to arterial smooth muscle cells (CASM3C system). Additional systems recapitulate aspects of the systemic immune response including monocyte-driven Th1 inflammation (LPS system) or T cell stimulation (SAg system), chronic Th1 inflammation driven by macrophage activation (lMphg system) and the T cell-dependent activation of B cells that occurs in germinal centers (BT system). The BE3C system (Th1) and the BF4T system (Th2) represent airway inflammation of the lung, while the MyoF system models myofibroblast-lung tissue remodeling. Lastly, skin biology is addressed in the KF3CT system modeling Th1 cutaneous inflammation and the HDF3CGF system modeling wound healing.
The X-axis lists the quantitative protein-based biomarker readouts measured in each system. The Y-axis represents a log-transformed ratio of the biomarker readouts for the drug-treated sample (n=1) over vehicle controls (n≥6). The grey region around the Y-axis represents the 95% significance envelope generated from historical vehicle controls. Biomarker activities are annotated when two or more consecutive concentrations change in the same direction relative to vehicle controls, are outside of the significance envelope, and have at least one concentration with an effect size >20% (|log 10 ratio|>0.1). Biomarker key activities are described as modulated if these activities increase in some systems, but decrease in others. Cytotoxicity is indicated on the profile plot by a thin black arrow above the X-axis, and antiproliferative effects are indicated by a thick grey arrow. Cytotoxicity and antiproliferative arrows only require one concentration to meet the indicated threshold for profile annotation. As summarized in Table 2 below, the compound was active with 35 annotated readouts. Specifically, the compound impacted inflammation-related activities (decreased Eotaxin 3, VCAM-1, MCP-1, SAA, sTNFα, MIP-1α; increased IL-1α, IL-6; modulated IL-8), immunomodulatory activities (decreased CD40, sIL-1β, sIgG, M-CSF, sIL-17A, sIL-6, sIL-17F, sIL-2), tissue remodeling activities (decreased PAI-1, uPAR, αSMA, Keratin 8/18; increased collagen I, MMP-1), and hemostasis-related activities (increased TF).
BioMAP® panels consist of human primary cell-based systems designed to model different aspects of the human body in an in vitro format. BioMAP® systems are constructed with one or more primary cell types from healthy human donors, with stimuli (such as cytokines or growth factors) added to capture relevant signaling networks that naturally occur in human tissue or pathological conditions. Vascular biology is modeled in both a Th1 (3C system) and a Th2 (4H system) inflammatory environment, as well as in a Th1 inflammatory state specific to arterial smooth muscle cells (CASM3C system). Additional systems recapitulate aspects of the systemic immune response including monocyte-driven Th1 inflammation (LPS system) or T cell stimulation (SAg system), chronic Th1 inflammation driven by macrophage activation (Mphg system) and the T cell-dependent activation of B cells that occurs in germinal centers (BT system). […]

T cells = test: BioMAP proliferation readout, T cells; format: cell-based, human; settings: 100 μM, 33 μM
Description: The X-axis lists the quantitative protein-based biomarker readouts measured in each system. The Y-axis represents a log-transformed ratio of the biomarker readouts for the drug-treated sample (n=1) over vehicle controls (n≥6). The grey region around the Y-axis represents the 95% significance envelope generated from historical vehicle controls. Biomarker activities are annotated when two or more consecutive concentrations change in the same direction relative to vehicle controls, are outside of the significance envelope, and have at least one concentration with an effect size >20% (|log 10 ratio|>0.1). Biomarker key activities are described as modulated if these activities increase in some systems, but decrease in others. […] As summarized in Table 2 below, the compound was active with 35 annotated readouts. […]
Human primary cells in BioMAP® systems are used at early passage (passage 4 or earlier) to minimize adaptation to cell culture conditions and preserve physiological signaling responses. […] Test agents prepared in either DMSO (small molecules; final concentration ≤0.1%) or PBS (biologics) are added at the indicated concentrations 1-hr before stimulation, and remain in culture for 24-hrs or as otherwise indicated (48-hrs, MyoF system; 72-hrs, BT system (soluble readouts); 168-hrs, BT system (secreted IgG)). […]

[2] = Example 3.2, hemostasis-related activities
[3] = Example 3.2, immunomodulatory activities
[4] = Example 3.2, inflammation-related activities
[5] = Example 3.2, tissue remodeling activities

Structure (SMILES): C1=NC(c2cncc(C3CCC=N3)c2)CC1 (stereo not drawn) [3,5-bis(3,4-dihydro-2H-pyrrol-2-yl)pyridine]
- LDLR ([1]; Example 3.2): decrease
- TF [1, 2]: increased
- TM [1, 2]: decreased
- CD38 [1, 3]: decreased
- CD40 [1, 3]: decreased
- HLA-DR [1, 3]: decreased
- sIL-1β [1, 3]: decreased
- sIL-2 [1, 3]: decreased
- sIL-6 [1, 3]: decreased
- sIL-17A [1, 3]: decreased
- sIL-17F [1, 3]: decreased
- sIgG [1, 3]: decreased
- Eotaxin 3 [1, 4]: decreased
- IL-6 [1, 4]: decreased
- IL-8 [1, 4]: modulated
- MCP-1 [1, 4]: decreased
- MIG [1, 4]: decreased
- P-selectin [1, 4]: decreased
- VCAM-1 [1, 4]: decreased
- sPGE2 [1, 4]: increased
- sTNFα [1, 4]: modulated
- Collagen IV [1, 5]: decreased
- MMP9 [1, 5]: decreased
- MMP-1 [1, 5]: decreased
- PAI-1 [1, 5]: decreased
- TIMP-1 [1, 5]: decreased
- alphaSMA [1, 5]: decreased
- uPAR [1, 5]: decreased
- cytotoxicity ([1]; at the concentrations tested in this study): not cytotoxic
- antiproliferative effect on T cells (T cells): antiproliferative
